Assay results: publication PMC12320299 (Chemical Science, 2025)

Tests used:
[1] = Solubility in phosphate buffered saline; assay type: physicochemical; details: PBS with 1% DMSO
From the text: Fig. 2 (A) Chemical structures of the investigated naphthoquinone-based metal(arenes) in this study.

[2] = test system: CT26 colon carcinoma; experiment: Anti-tumour activity in subcutaneous CT26 allografts; assay type: in vivo, BALB/c mice; details: for tumour growth compared to vehicle-treated controls: i.p. over two weeks, 10 mg kg^−1 (1a, 2a), 30 mg kg^−1 (1b, 2b)
Description: Tumour inhibition of the four compounds was evaluated in subcutaneous CT26 allografts using BALB/c mice, since it represents an appropriate immune competent mouse model to study colon carcinoma. The compounds were administered intraperitoneally (i.p.) over two weeks at doses of 10 mg kg^−1 for the 3-Et-NQ complexes and 30 mg kg^−1 for the 3-Morph-NQ complexes. The different dosages were selected as maximal tolerable doses (MTDs) after an initial toxicity screen (data not shown).
Animals. All experiments were carried out with male Balb/c mice according to the regulation of the Ethics Committee for the Care and Use of Laboratory Animals at the Medical University Vienna (BMWF-2022-0.770.291), the guidelines from the Austrian Animal Science Association and the Federation of European Laboratory Animal Science Associations (FELASA). The animals were kept in a pathogen-free conditions, controlled environment with 12 h light–dark cycle with ad libitum access to food and water. Every procedure was done in a laminar airflow […]
Treatment. CT-26 cells ([…] in 50 μL serum-free medium) were injected subcutaneously (s.c.) into the right flank of ten– to eleven-week-old male Balb/c mice. Three days after cell injection, all compounds (dissolved in 10% DMSO in water) were administered […]
1b/2b. Regarding anticancer activity experiments, mice were treated on 5 consecutive days […]
over 2 weeks. […]

[3] = Reactivity with mixture of small biological nucleophiles by ESI-MS; assay type: physicochemical; details: for reaction with nucleophile mixture within 24 h: 50 μM; for Intact compound after 24 h, nucleophile mixture: equimolar Cys/Met/His/ATP/GTP, each 50 μM, ESI-MS
Description: Then, the compounds were analogously incubated with an equimolar mixture of cysteine, methionine, histidine, adenosine triphosphate and guanosine triphosphate to verify coordination preferences for amino acids over nucleotides. The reactivity of the four compounds was qualitatively similar, characterized by release of the NQ ligands and formation of mainly methionine and histidine-adducts with the metal(arene) (ESI, Fig. S13 ^†). No metalation of the nucleotides was observed. In contrast to other O,O-ligand systems, which are typically deactivated within minutes by ligand release under such conditions,[51,52] the N,O,O-tridentate organometallics studied here were characterized by increased stability. […] Again, the 3-Morph-NQ ligand was detected upon release from the metal centre, but hydrolysis dimers were not observed in the presence of bionucleophiles (ESI, Fig. S13 ^†). The reactivity of the compounds towards an equimolar concentration of the model protein ubiquitin was characterized by similar kinetic behaviours and reactivity (ESI, Fig. S14 ^†). […]
aliquot was used for stability testing of the respective test substance in aqueous solution. […]
2b were equimolarly added (50 µM) to a mixture of three amino acids and two nucleotides (Cys/Met/His/ATP/GTP; each 50 µM in aqueous solution) to test the interaction with small biological nucleophiles. All samples were mixed and incubated in a shaking incubator at 37 °C with speed set to 1000 rpm in the dark (Eppendorf ThermoMixer® C). After 1.5 h, 24 h and 72 h, 300 µL per sample were transferred to fresh reaction vessels, immediately frozen in liquid N2 and stored at –20 °C until measurement.
Samples were diluted to a concentration of 2.5 µM with an organic eluent (49.5% v/v acetonitrile, 49.5% v/v methanol,1% v/v H2O), except ubiquitin containing samples which were diluted to the same concentration with acidified H2O (0.1% v/v formic acid). The samples were then analysed by flow-injection using an amazon speed ETD ion trap (Bruker Daltonics) in the positive ion mode over 0.4 min using the following experimental parameters: HV capillary ±4.5 kV, end plate offset –500 V, dry temp 180 °C, nebulizer 3 bar, dry gas 5 L min-1, scan range m/z 200–1400, target mass m/z 900, flow rate 5 µL min-1. For ubiquitin containing samples, the scan range was adapted to m/z 300– 2200 with a target mass of m/z 1100. Data

[4] = test system: SW480 colon carcinoma cell line; experiment: MTT viability assay, SW480, 24 h; assay type: cell-based, human; details: for IC50: 24 h incubation; for potency compared to morpholine-analogues 1b and 2b: SW480, 24 h
Description: cultured in adherent T75 flasks (Sarstedt) in a humidified incubator at 37 °C and 5% CO2 (HeraCell150i, Thermo Fisher Scientific) and subcultured three times a week as the cells reached 75–80% growth area occupied. […]
Trypsin/EDTA solution (0.25%, Sigma-Aldrich) was used for detachment of all […]
SW480 human colon carcinoma cells (4.000 cells/well for the ethyl complexes; 4.000 and 10.000 cells/well for the morpholino complexes) were seeded in flat-bottom 96-well plates (Corning) and incubated at 37 °C for 24 h in a humidified incubator at 5% CO2 (HeraCell150i, Thermo Fisher Scientific). Stock solutions of the compounds were freshly prepared in DMSO […]
10 µM in complete cell culture medium for the ethyl compounds and 5, 10, 20, 40, 60, 80, 120, 160 µM for the morpholino compounds (final concentration of DMSO ≤0.4% v/v). The cells were incubated with the compounds for 24 h and 72 h. Then, the cell metabolism was colorimetrically determined using 3-(4,5-dimethylthiazol-2-yl)-2,5-diphenyl tetrazolium bromide (MTT). For this purpose, MTT reagent (20 µL, 5 mg mL-1 in phosphate-buffered saline, PBS) was added to each well and further incubated for 4 h. The medium was gently […]
removed and 100 µL DMSO was added to dissolve the formazan crystals. Photometric quantification was performed at 570 nm with a Multiskan Go 1510 photometer (Thermo Fisher […]
The absorbances were blank corrected and converted to relative proliferation. The IC50 values (concentration of 50% growth inhibition) were obtained using a sigmoidal fit of the experimental data and calculated as the mean ± standard deviation of at least three independent experiments, each in at least triplicates. […]
(each 3.000 cells/well) were seeded in 100 µL/well into flat-bottom 96-well plates (Starlab) and incubated at 37 °C for 24 h in a humidified incubator (Binder CB210) at 5% CO2. Complex 1a, bafilomycin or bortezomib were dissolved in DMSO and diluted in appropriate cell culture medium to respective concentrations. After 24 h of treatment, plates were measured by MTT assay as described above.
Colon carcinoma cells (SW480) were seeded into 12-well plates (CytoOne, Starlab) in densities of 1×10^5 cells per well (in 1 mL complete medium). After 24 h, cells were treated with […]

Structure (SMILES)	Solubility in PBS [1]	reduction in tumour volume on day 13 ([2]; 10 mg kg^−1 i.p. over two weeks, vs vehicle)	tumour inhibition, 1-week experiment ([2]; 10 mg kg^−1 i.p., five consecutive days)	tumour growth compared to vehicle-treated controls [2]	reaction with nucleophile mixture within 24 h [3]	Intact compound after 24 h, nucleophile mixture [3]	IC50 [4]	potency compared to morpholine-analogues 1b and 2b [4]
CCC1=C2[O][Ru][O]C2(n2cccn2)c2ccccc2C1=O.Cc1ccc(C(C)C)cc1 (stereo not drawn) [Compound 1a, [(3-ethyl-4-oxo-(pyrazolyl)-dihydronaphthalene)(cymene)ruthenium(II)]]	170 µM	44%	statistically significant tumour inhibition	significantly inhibit tumour growth	reacted nearly quantitatively	4%	620 ± 40 nM	> 30 times
Cc1ccc(C(C)C)cc1.O=C1C(CN2CCOCC2)=C2[O][Ru][O]C2(n2cccn2)c2ccccc21 (stereo not drawn) [Compound 1b]	1220 µM			inactive	reacted nearly quantitatively	7%	38000 ± 5000 nM	
CCC1=C2[O][Os][O]C2(n2cccn2)c2ccccc2C1=O.Cc1ccc(C(C)C)cc1 (stereo not drawn) [Compound 2a]	210 µM			significantly inhibit tumour growth		19%	1200 ± 100 nM	> 30 times
